Data as given in publication PMC8096952, “Similar pharmacokinetics and pharmacodynamics of a new biosimilar and reference insulin aspart in healthy Chinese males” (Scientific Reports, 2021).
Where two headings read alike, the source gives them in different places. Marks after values point to notes of the source that are not given here.

Assays:
[1] = Pharmacokinetics of insulin aspart (plasma IAsp) during euglycemic clamp study; type: in vivo, healthy Chinese males; conditions: for t1/2: healthy Chinese males, single 0.2 U/kg s.c., fasted, plasma IAsp by UPLC-MS/MS, arithmetic mean (SD), N = 30; for Tmax: sc
Text: (§1) There was a phase I, single-site, randomized, single-dose, two-period, crossover, euglycemic clamp study, evaluating the similarity in PK and PD of two IAsp products in healthy subjects (a new IAsp biosimilar RD10046 by HEC Pharm vs. NovoRapid by Novo Nordisk). In this study, subjects were randomly allocated to one of two treatment sequences (Fig. 1), in which they received 0.2 units/kg s.c. doses of two different IAsp products (as listed above) on two occasions.
(§2) Subjects were admitted to the phrase I unit on day-1 of each treatment period. On day 1, subjects received a single dose of the IAsp biosimilar RD10046 or NovoRapid after an overnight fast of at least 10 h, and a euglycemic clamp procedure that lasted up to 10 h postdose was performed. Subjects were discharged when they had had carbohydrates at the end of the euglycemic clamp. An interval of 7–14 days existed between the two doses.
(§3) The euglycemic clamp study was performed after inserting two catheters (an antecubital venous catheter for infusing 20% dextrose and a retrograde venous catheter in the hand heated in a box at 55–65℃ for measuring blood glucose). After collecting the basal blood glucose level [defined as the mean of the glucose measurement of several times (− 60, − 30, − 20, − 10 min) before dosing], the subjects received a 0.2 U/kg dose of NovoRapid or RD10046 by s.c. injection into a lifted abdominal skin-fold. Blood samples were obtained at the bedside for immediate determination of whole blood glucose concentrations and then monitored every 5 min from 0 to 240 min and every 10 min from 240 to 600 min after dosing. During the euglycemic clamp, the GIR was varied as necessary to maintain the blood glucose concentration within approximately ± 10% of the target level (defined as 0.28 mmol/L below the subject’s basal glucose level). The investigator made the GIR adjustment based on glucose measurements and experience. If the GIR fell to zero for at least 30 min, the clamp was discontinued. A 4-mL blood sample was collected at the following points for analysis of C-peptide and IAsp concentration: − 30, 0 (before dosing), 10, 20, 30, 40, 50, 60, 90, 120, 150, 180, 210, 240, 270, 300, 360, 420, 480 and 600 min. The baseline of C-peptide was defined as the mean value of two measurements at − 30 and 0 min.
(§4) Whole blood glucose concentrations were tested with a glucose analyzer (Biosen C_line GP+, Neckar Healthcare. Co. Ltd., Magdeburg, Germany) using an automated glucose oxidase technique. Serum C-peptide levels were analyzed using an ELISA (Cat. No. 80‐CPTHU‐E01.1; ALPCO, Salem, NH), and plasma IAsp concentrations were assessed by means of a validated, ultra-performance liquid chromatography-tandem mass spectrometry (UPLC-MS/MS) method at Covance Laboratories in Shanghai. The ranges of quantification were 20–3000 pmol/L for C-peptide and 0.2–10 ng/mL for IAsp.
The primary endpoint parameters of PK were shown as follows derived from time-profiles of IAsp: (1) maximal concentration of IAsp (Cmax), (2) the AUC of IAsp from 0 to 10 h (AUCIAsp, 0-10h). The time of Cmax (Tmax) and terminal half-life (t1/2) were also recorded. Those parameters mentioned above were calculated by PKsolver (version 2.0)[26]. Log-transformed AUCIAsp,0–10h and Cmax were evaluated with a linear mixed-effects model including subject as a random effect with the period, sequence, and treatment as fixed effects. For each parameter, the difference in the LS means along with the 90% CIs was back-transformed to produce the ratio of geometric means and the CI comparing treatments. The pharmacokinetic similarity was to be concluded if the 90% CIs for both AUCIAsp,0–10h and Cmax were completely contained within the interval of 0.80–1.25.
(§5) Time-related PK/PD parameters were evaluated by a nonparametric approach based on the Hodges-Lehmann method.

healthy Chinese males [2] = assay: Euglycemic clamp pharmacodynamics (glucose infusion rate); type: in vivo; conditions: for Tearly,50% (time of half-maximum GIR before GIRmax) / Tlate,50% (time of half-maximum GIR after GIRmax) / Tonset (first time of blood glucose declining to target level, 0.28 mmol/L less than baseline) / tGIRmax (time of maximum glucose infusion rate) / AUCGIR,0–10h (total glucose infusion during the clamp) / GIRmax (maximum glucose infusion rate): healthy Chinese males, single 0.2 U/kg s.c., 10-h euglycemic clamp, N = 29 RD10046, 30 NovoRapid; for AUCGIR,0–10h (total glucose infusion during the clamp) / GIRmax (maximum glucose infusion rate): fasted, LOESS-smoothed GIR
Text: as §1, §2, §3, §4
GIR profiles were smoothed by a locally weighted regression technique (LOESS, factor 0.10) using SAS software (version 9.4). The primary glucose-lowing effectiveness endpoints were the following parameters derived from the smoothed GIR profiles during the time interval from 0 to 10 h: (1) maximal GIR (GIRmax), (2) AUC of GIR from 0 to 10 h (AUCGIR, 0–10h). The time-related parameters including the time of GIRmax (tGIRmax), the onset of time (Tonset) (defined as the first time when BG declining at least 0.28 mmol/L from baseline), the time for GIR to rise from 0 to half of GIRmax (Tearly50%), and the time for GIR to decline from GIRmax to half of GIRmax (Tlate50%) were also recorded. A similar analysis was performed for GIRmax and AUCGIR, 0–10h.
as §5

C-peptide = assay: Serum C-peptide during euglycemic clamp (endogenous insulin secretion); type: in vivo; conditions: healthy Chinese males, single 0.2 U/kg s.c., 10-h euglycemic clamp, ELISA, mean ± SD, N = 30
Method: The euglycemic clamp study was performed after inserting two catheters (an antecubital venous catheter for infusing 20% dextrose and a retrograde venous catheter in the hand heated in a box at 55–65℃ for measuring blood glucose). After collecting the basal blood glucose level [defined as the mean of the glucose measurement of several times (− 60, − 30, − 20, − 10 min) before dosing], the subjects received a 0.2 U/kg dose of NovoRapid or RD10046 by s.c. injection into a lifted abdominal skin-fold. Blood samples were obtained at the bedside for immediate determination of whole blood glucose concentrations and then monitored every 5 min from 0 to 240 min and every 10 min from 240 to 600 min after dosing. […]
as §4

healthy Chinese males [3] = assay: Safety evaluation (treatment-emergent adverse events); type: in vivo; conditions: all causalities, single 0.2 U/kg s.c., N = 30
Text: The safety assessments included the vital signs, physical examination, laboratory tests (complete blood cell count, liver and renal function, urinalysis, etc.), 12-lead ECG, injection site reaction, hypoglycemia, and other AEs.

[4] = in vivo; cited from earlier work
Text: (§6) The maximum observed drug concentration and total drug exposure were higher than those in the previous report, which might ...

healthy Chinese males [5] = conditions: previous reports; cited from earlier work
Text: as §6

Substance	t1/2 [1]	Tmax ([1]; in vivo)	Tearly,50% (time of half-maximum GIR before GIRmax) (healthy Chinese males [2]; geometric mean (CV %))	Tlate,50% (time of half-maximum GIR after GIRmax) (healthy Chinese males [2]; geometric mean (CV %))	Tonset (first time of blood glucose declining to target level, 0.28 mmol/L less than baseline) (healthy Chinese males [2]; geometric mean (CV %))	tGIRmax (time of maximum glucose infusion rate) (healthy Chinese males [2]; geometric mean (CV %))	AUCGIR,0–10h (total glucose infusion during the clamp) (healthy Chinese males [2]; arithmetic mean)	GIRmax (maximum glucose infusion rate) (healthy Chinese males [2]; arithmetic mean)	AUCGIR,0–10h (total glucose infusion during the clamp) (healthy Chinese males [2]; geometric mean (CV %))	GIRmax (maximum glucose infusion rate) (healthy Chinese males [2]; geometric mean (CV %))	C-peptide suppression after injection (reduction from baseline) (C-peptide)	further results
insulin aspart [NovoRapid]	38.0 (9.38) min	50.2 (30.2,75.3) min	38 (22) min	226 (17) min	15 (23) min	104 (26) min	1594 mg/kg	7.84 mg/kg/min	1542 (27) mg/kg	7.64 (22) mg/kg/min	30.7 ± 13.3%	TEAE Blood bilirubin increased: number of AEs (number of subjects with AEs) (healthy Chinese males [3]): 1 (1); Tmax [4]: 48 to 70 min; GIRmax (healthy Chinese males [5]): 6 to 9 mg/kg/min; total glucose infusion (healthy Chinese males [5]): 1300 to 1500 mg/kg
insulin aspart [RD10046]	39.2 (13.1) min	50.3 (20.4,60.9) min	38 (21) min	227 (21) min	16 (28) min	113 (33) min	1558 mg/kg	7.65 mg/kg/min	1493 (31) mg/kg	7.44 (23) mg/kg/min	30.2 ± 14.7%	AUCIAsp,0–10h, ratio of LS means (RD10046 divided by NovoRapid) ([1]; in vivo): 1.02^a; AUCIAsp,0–∞, ratio of LS means (RD10046 divided by NovoRapid) ([1]; in vivo): 1.02; Cmax, ratio of LS means (RD10046 divided by NovoRapid) ([1]; in vivo): 1.01^a; AUCGIR,0–10h, ratio of LS means (RD10046 divided by NovoRapid) (healthy Chinese males [2]; 90% CI in next column): 0.97^a; GIRmax, ratio of LS means (RD10046 divided by NovoRapid) (healthy Chinese males [2]; 90% CI in next column): 0.98^a; Tearly,50%, difference between medians (RD10046 - NovoRapid) (healthy Chinese males [2]; Hodges-Lehmann method): 0.13^b min; Tlate,50%, difference between medians (RD10046 - NovoRapid) (healthy Chinese males [2]; Hodges-Lehmann method): 0.39^b min; Tonset, difference between medians (RD10046 - NovoRapid) (healthy Chinese males [2]; Hodges-Lehmann method): 0^b min; tGIRmax, difference between medians (RD10046 - NovoRapid) (healthy Chinese males [2]; Hodges-Lehmann method): 15^b min; TEAE Electrocardiogram high voltage: number of AEs (number of subjects with AEs) (healthy Chinese males [3]): 1 (1); TEAE Hyperuricemia: number of AEs (number of subjects with AEs) (healthy Chinese males [3]): 1 (1); TEAE Induration: number of AEs (number of subjects with AEs) (healthy Chinese males [3]): 1 (1); TEAE Pain in extremity: number of AEs (number of subjects with AEs) (healthy Chinese males [3]): 1 (1); TEAE Platelet count increased: number of AEs (number of subjects with AEs) (healthy Chinese males [3]): 1 (1); TEAE Refraction disorder: number of AEs (number of subjects with AEs) (healthy Chinese males [3]): 1 (1)
